Article PMC7523345 (Investigational new drugs, 2018)
“Also recorded” adds a separate entry of the source.

Experiment: Phase I dose escalation study: safety, tolerability, DLT and MTD
Assay type: in vivo

## Cc1cccc2c1NC(=O)[C@@H](NC(=O)[C@H](CCC(F)(F)F)[C@H](CCC(F)(F)F)C(N)=O)N=C2c1cccc(F)c1 [BMS-986115]
Arm A QD 0.6 mg (N = 2)
  Rash maculopapular (drug related AE, all grades): 0 n (%)
  Sinusitis (drug related AE, all grades): 0 n (%)
  Urticaria (drug related AE, Grade 3 and 4): 0 n (%)
  Vision blurred (drug related AE, all grades): 0 n (%)
  Vomiting (drug related AE, Grade 3 and 4): 0 n (%)
  Vomiting (drug related AE, all grades): 1 (50) n (%)
  Weight decreased (drug related AE, all grades): 0 n (%)
Arm A QD 0.6 mg, 2 DLT evaluable patients
  No. of patients with DLTs: 0
Arm A QD 1.2 mg (N = 6)
  Abdominal distension (drug related AE, all grades): 0 n (%)
  Abdominal pain (drug related AE, Grade 3 and 4): 0 n (%)
  Abdominal pain (drug related AE, all grades): 0 n (%)
  Blood creatinine increased (drug related AE, all grades): 0 n (%)
  Colitis (drug related AE, Grade 3 and 4): 1 (17) n (%)
  Cough (drug related AE, Grade 3 and 4): 0 n (%)
  Cough (drug related AE, all grades): 0 n (%)
  Decreased Appetite (drug related AE, Grade 3 and 4): 0 n (%)
  Decreased Appetite (drug related AE, all grades): 2 (33) n (%)
  Dehydration (drug related AE, Grade 3 and 4): 0 n (%)
  Dehydration (drug related AE, all grades): 2 (33) n (%)
  Dermatitis acneiform (drug related AE, all grades): 0 n (%)
  Diarrhoea (drug related AE, Grade 3 and 4): 1 (17) n (%)
  Diarrhoea (drug related AE, all grades): 6 (100) n (%)
  Dry mouth (drug related AE, all grades): 1 (17) n (%)
  Dry skin (drug related AE, all grades): 1 (17) n (%)
  Dysgeusia (drug related AE, all grades): 2 (33) n (%)
  Dyspepsia (drug related AE, all grades): 1 (17) n (%)
  Dysphonia (drug related AE, all grades): 0 n (%)
  Fatigue (drug related AE, Grade 3 and 4): 0 n (%)
  Fatigue (drug related AE, all grades): 2 (33) n (%)
  Flatulence (drug related AE, all grades): 0 n (%)
  Hypocalcaemia (drug related AE, Grade 3 and 4): 0 n (%)
  Hypocalcaemia (drug related AE, all grades): 0 n (%)
  Hypokalaemia (drug related AE, Grade 3 and 4): 1 (17) n (%)
  Hypokalaemia (drug related AE, all grades): 3 (50) n (%)
  Hyponatraemia (drug related AE, Grade 3 and 4): 0 n (%)
  Hyponatraemia (drug related AE, all grades): 0 n (%)
  Hypophosphataemia (drug related AE, Grade 3 and 4): 2 (33) n (%)
  Hypophosphataemia (drug related AE, all grades): 6 (100) n (%)
  Ileus (drug related AE, Grade 3 and 4): 0 n (%)
  Increased upper airway secretion (drug related AE, all grades): 0 n (%)
  Laryngeal pain (drug related AE, all grades): 0 n (%)
  Leucocytosis (drug related AE, Grade 3 and 4): 0 n (%)
  Mouth ulceration (drug related AE, all grades): 1 (17) n (%)
  Nausea (drug related AE, Grade 3 and 4): 0 n (%)
  Nausea (drug related AE, all grades): 4 (67) n (%)
  Pruritus (drug related AE, Grade 3 and 4): 0 n (%)
  Pruritus (drug related AE, all grades): 0 n (%)
  Pulmonary embolism (drug related AE, Grade 3 and 4): 0 n (%)
  Rash (drug related AE, all grades): 3 (50) n (%)
  Rash maculopapular (drug related AE, all grades): 0 n (%)
  Sinusitis (drug related AE, all grades): 1 (17) n (%)
  Urticaria (drug related AE, Grade 3 and 4): 0 n (%)
  Vision blurred (drug related AE, all grades): 0 n (%)
  Vomiting (drug related AE, Grade 3 and 4): 0 n (%)
  Vomiting (drug related AE, all grades): 2 (33) n (%)
  Weight decreased (drug related AE, all grades): 1 (17) n (%)
Arm A QD 1.5 mg
  Description of DLT: Gr 3 nausea; also recorded: G3 nausea
  Description of study drug toxicity that led to treatment discontinuation: G3 Nausea concurrent with G2 diarrhoea (N = 1); also recorded: G2 Dermatitis acneiform (N = 1)
Arm A QD 1.5 mg (N = 7)
  Abdominal distension (drug related AE, all grades): 1 (14) n (%)
  Abdominal pain (drug related AE, Grade 3 and 4): 1 (14) n (%)
  Abdominal pain (drug related AE, all grades): 1 (14) n (%)
  Blood creatinine increased (drug related AE, all grades): 0 n (%)
  Colitis (drug related AE, Grade 3 and 4): 0 n (%)
  Cough (drug related AE, Grade 3 and 4): 0 n (%)
  Cough (drug related AE, all grades): 2 (29) n (%)
  Decreased Appetite (drug related AE, Grade 3 and 4): 0 n (%)
  Decreased Appetite (drug related AE, all grades): 1 (14) n (%)
  Dehydration (drug related AE, Grade 3 and 4): 0 n (%)
  Dehydration (drug related AE, all grades): 0 n (%)
  Dermatitis acneiform (drug related AE, all grades): 4 (57) n (%)
